In patent US6265423A, “Aromatic polycyclic retinoid-type derivatives, method for preparing same, and use thereof for making pharmaceutical and cosmetic compositions” (priority 1996, dated 2001):

Experiments:
RAR and RXR receptors = test: RAR/RXR activity profile drawn from the models; type: cell-based
From the text: The reference molecules have allowed one to show the effectiveness and the complementary nature of the different models used and lead to the following conclusions: chimerical constructions GAL-RAR and RAR-ERcassette allow the determination of the RAR agonist profile of molecules, but also an RXR agonist activity with RAR-ERcassette, the HRLN lineage mainly conveys the activity of a compound mediated by endogenic RARα, the HRL+N lineage also provides evidence of an RXR agonist activity of the retinoids, the anti-oestrogenic effect of the retinoids (oestrogen-induced cellular proliferation and MELN lineage) is mediated by RARα, the anti-AP-1 effect is mediated in the MCF-7 cells (MTLN lineage) by RARα, RARγ and RXRα, and an additive effect exists between the RAR and RXR routes.

[1] = system: RAR-ERcassettes (RARα, RARβ, RARγ); test: Chimerical receptors RAR-ERcassettes, overall profile; type: cell-based
From the text: (§1) The HeLa cells are co-transfected by a plasmid which codes for a retinoic receptor in which the C domain of bonding to the DNA is substituted by that of the receptor to RE oestrogens, and a plasmid which places the expression of the luciferase under the control of an ERE (Element of Response to Oestrogens). The expressed chimerical receptors are designated as RARα-ERcassette, RARβ-ERcassette, RARγ-ERcassette and RXRα-ERcassette. The A, B, D, E and F regions of the natural receptor are preserved as well as the transcriptional co-operation between the activation domains AF-1 and AF-2. These transitory transfection experiments follow the method of co-precipitation to calcium phosphate. The HeLa cells are co-transfected by […] of plasmid coding for the chimerical receptor, […] of reporter plasmid and […] of expression vector CMV-β-galactosidase used as an internal control of transfection. 24 hours after the transfection, the cells are incubated for 16 hours with the different effectors.
(§2) In this type of chimerical receptor, the C domain of bonding to the DNA of RAR is substituted by that of the receptor to the RE oestrogens. The protein obtained is close to the natural RAR receptor and preserves the transcriptional properties of the AF-1 and AF-2 domains. It modulates the transcription by means of an ERE. This RAR-ERcassette model allows one to observe a transcriptional response to a more physiological ligand.

T-47D cells = test: Effect on oestrogen-induced proliferation of T-47D cells; type: cell-based, human; conditions: Homo sapiens, T47D, 168 h; 10^-6 M; 100% = E2 10^-9 M, 7 days; read-out: growth of T-47D cells
Procedure: (§3) MCF-7 cells and HeLa are cultivated in DMFM with phenol red to which 5% foetal calf serum is added. The T47-D cells are cultivated in RPMI to which 10% foetal calf serum is added. The experimental tests are carried out in DMEM without phenol red to which foetal calf serum treated with dextran carbon is added at 3%. […] The experiments using the different retinoids are carried out sheltered from the light so as to avoid any isomerisation.
So as to test the anti-proliferation effect of the retinoids, growth experiments under oestrogenic conditions were carried out on cells MCF-7 and T-47D. These are the human oestrogen-dependent mammary cancer cells which express the receptor to RE oestrogens. The effect of the molecules is evaluated after 7 days of culture in oestrogenic conditions (estradiol 10^-9 M) by dosing the cellular DNA. The cells are distributed in 24 well plates at a density of 2×10^4 cells per well. The tests with the different retinoids are carried out in triplicate and the culture medium is changed after 4 days of growth.

RARα-ERcassette = test: Transactivation, chimerical receptor RARα-ERcassette (HeLa); type: cell-based; conditions: TTNPB 10^-8 M = 100
From the text: as §1, §2

RARβ-ERcassette = test: Transactivation, chimerical receptor RARβ-ERcassette (HeLa); type: cell-based; conditions: TTNPB 10^-8 M = 100
From the text: as §1, §2

RARγ-ERcassette = test: Transactivation, chimerical receptor RARγ-ERcassette (HeLa); type: cell-based; conditions: TTNPB 10^-8 M = 100
From the text: as §1, §2

[2] = system: response element RARE of RARβ gene, endogenic retinoic receptors, HRLN lineage; test: HRLN transactivation (RARE-luciferase, stably transfected HeLa); type: cell-based
Procedure: as §3
(§4) Certain properties of the retinoids have been determined using more developed cellular models. These models consist of cellular lineages transfected in a stable fashion by recombinant plasmids which place the expression of the gene of the luciferase under the control of different nuclear response elements. […] The tests carried out in duplicate are described below for each of these models.
The cellular lineages HRLN and HRL+N allow one to study the activation of an RARE by endogenic receptors using ligands at physiological concentrations. These lineages derive from HeLa cells transfected in a stable fashion by a reporter gene which places the expression of the gene of the luciferase under the control of a nuclear response element RARE (RARE3 -tk-Luc). The HeLa cells express all the known receptors of the retinoic acid (RARα,β,γ and RXRα,β,γ) with a predominance of RARα and RXRα. The response element RARE used for the HRLN cells corresponds to the sequence of the natural gene of the RARβ receptor (GGTTCAnnnnnAGTTCA). The HRL+N cells comprise the sequence GAGTGAnnnnnCGGTGA.
This lineage comprises the response element RARE of the natural gene of the RARβ receptor which controls the expression of the gene of the luciferase.

[3] = system: ERE-βGlob-Luc, MELN lineage (MCF-7); test: Anti-oestrogenic effect, MELN lineage activated by estradiol; type: cell-based, human
From the text: as §4
MCF-7 cells express RARα,γ and RXRα. The transfection of MCF-7 cells by an oestrogen-dependent gene (ERE-βGlob-Luc) has permitted the establishment of the MELN cellular lineage, used to determine the anti-oestrogenic activity of the retinoids. These cells contain the gene of the luciferase under the transcriptional control of the promoter of the βGlobine and of the response element ERE isolated from the gene of chicken vitelogenine A2. The experiments are carried out with MELN cells activated by 10^-9 M estradiol. The level of base activity of the MELN cells is obtained with the anti-oestrogen 1 μM 4-OH-tamoxifen (hydroxytamoxifen).
The effect of the products tested on the cells activated by 10^-9 M estradiol is expressed as a percentage, the level of base activity being deducted.

[4] = system: AP-1, MTLN lineage (MCF-7); test: Anti-AP-1 effect, MTLN lineage activated by TPA; type: cell-based, human
Procedure: as §4
The anti-factor AP-1 transrepressor effect of retinoids is determined using the MTLN lineage, coming from MCF-7 cells transfected in a stable fashion by a vector p(TRE)3 -tk-Luc which places the expression of the gene of luciferase under the control of […]. TPA activates the AP-1 complex formed from proteins of the family of nuclear proto-oncogenes (c-Jun and c-Fos). […] The experiments are made with the MTLN cells activated by 10^-7 M TPA.
The effect of the compounds on the MTLN cells activated by 10^-7 M TPA is expressed as a percentage. […] The inhibitive properties of the products are calculated after deduction of the base activity of the cells. The percentages reported correspond to a range of inhibitions determined from several experiments.

[5] = system: A-427 human pulmonary cancer cells; test: MTT test, proliferation of A-427; conditions: Homo sapiens, A-427, 72 h, read-out: level of proliferation
[6] = system: ZR-75-1 human mammary cancer cells; test: MTT test, proliferation of ZR-75-1; type: cell-based
Procedure: (§5) The cells that were cultured came from the ATCC (American Type Culture Collection).
(§6) The cellular lines are kept in culture in a monolayer at 37° C. in closed culture dishes (Nunc. Gibco BRL, Life Technologies, Belgium) containing the minimum essential medium (MEM, Gibco) supplemented with 5% of Foetal Calf Serum, (FCS, Gibco), 0.6 mg/ml of glutamine (Gibco) and a mixture of 200 IU/mi of penicillin (Gibco), 200 μg/ml of streptomycin (Gibco) and 0.1 mg/ml of gentamycin (Gibco). The foetal calf serum is decomplemented for 1 hour at 56° C.
(§7) This test is based on the mitochondrial reduction by living metabolically active cells of the MTT (3-(4,5-dimethylthiazol-2-yl)-2,5-diphenyltetrazolium bromide) of yellowish colour into a blue coloured product, formazan. The quantity of formazan obtained is directly proportional to the number of living cells. After incubation of the cells for 24 hours in microplates with 96 flat bottomed wells, the culture medium is replaced by 100 μl of fresh culture medium containing the drug to be tested.
(§8) The microplates are then incubated for 3 hours at 37° C. and centrifuged for 10 minutes at 400 g (GPR centrifuge, Beckman). The MTT solution is replaced by 100 μl of dimethylsulphoxide (Merck). The microplates are agitated (Vari-Shaker, Dynatech) for 10 minutes.
(§9) In the microplates, the control cells like the treated cells were incubated in a medium without the compounds to be tested for 24 hours. The control cells are incubated in a medium without a drug throughout the whole experiment, while the treated cells are incubated in different media. These media contain the molecule to be tested at various concentrations: 10^-8 M, 10^-6 M and 10^-4 M. All the tests are carried out in 6 duplicates.
(§10) The statistical comparisons are carried out according to the Fisher Test:
(§11) The mean optical density measured for each experimental condition is expressed as a percentage in relation to the laid down control condition being equal to 100%.

[7] = cited from earlier work
[8] = system: A549 human pulmonary cancer cells; test: MTT test, proliferation of A549; type: cell-based
[9] = system: T-47D human mammary cancer cells; test: MTT test, proliferation of T-47D; type: cell-based
Procedure: as §5, §6, §7, §8, §9, §10, §11

[10] = Homo sapiens, A549, 72 h, read-out: level of proliferation

## C/C(=C/c1ccc2c(c1)C(C)(C)CCC2(C)C)c1ccc(C(=O)O)s1 [CB30382, (Z) 2-[1-(5,6,7,8-tetrahydro-5,5,8,8-tetramethyl-2-naphthalenyl)-2-propenyl]thienyl-5-carboxylic acid]
RAR and RXR receptors
  RAR/RXR activity profile (in words): panagonistic
[1]
  RAR-ERcassette profile (in words): induce a transactivation mediated by the three receptors
T-47D cells
  activity at 1 µM: 73 to 94%
RARα-ERcassette; 10^-6 M
  RAR-ERcassette RARα transactivation: 93%
RARα-ERcassette; 10^-7 M
  RAR-ERcassette RARα transactivation: 12%
RARβ-ERcassette; 10^-6 M
  RAR-ERcassette RARβ transactivation: 130%
RARβ-ERcassette; 10^-7 M
  RAR-ERcassette RARβ transactivation: 39%
RARγ-ERcassette; 10^-6 M
  RAR-ERcassette RARγ transactivation: 83%
RARγ-ERcassette; 10^-7 M
  RAR-ERcassette RARγ transactivation: 29%
[2]
  HRLN transactivation (in words): induce a transactivation close to that of TTNPB
[2]; Homo sapiens, HeLa, read-out: HRLN transactivation, E max
  Emax: 102%
[3]; Homo sapiens, MCF7, 10^-6 M, cells activated by 10^-9 M estradiol
  inhibition: 2 to 20%
[3]; Homo sapiens, MCF7, 10^-7 M, cells activated by 10^-9 M estradiol, read-out: anti-oestrogenic effect, inhibition
  inhibition at 0.1 µM: 0%
[3]; estradiol-activated MELN cells
  anti-oestrogenic effect (in words): permit a transrepression of a controlled gene by an ERE
[4]; Homo sapiens, MCF7, 10^-6 M, cells activated by 10^-7 M TPA, range of several experiments
  inhibition at 1 µM: 42 to 47%
[4]; Homo sapiens, MCF7, 10^-7 M, cells activated by 10^-7 M TPA, range of several experiments, read-out: anti-AP-1 effect, inhibition
  inhibition at 0.1 µM: 21%
[4]; TPA-activated MTLN cells
  anti-AP-1 effect (in words): exert an inhibitor effect comparable to that of the effect of CB28628

## CC1=C(/C=C/C(C)=C/C=C/C(C)=C\C(=O)O)C(C)(C)CCC1 [CB81808, 13-cis retinoic acid, reference compound]
[5]
  activity at 0.01 µM: 100%
  activity at 1 µM: 99.6%
  activity at 100 µM: 6.5%
[6]; Homo sapiens, ZR-75-1, 10^-4 M, 72 h, control = 100%, read-out: level of proliferation
  activity at 100 µM: 2.3%
[6]; Homo sapiens, ZR-75-1, 10^-6 M, 72 h, control = 100%, read-out: level of proliferation
  activity at 1 µM: 55%
[6]; Homo sapiens, ZR-75-1, 10^-8 M, 72 h, control = 100%, read-out: level of proliferation
  activity at 0.01 µM: 41.6%
[6]; MTT test
  effect on cellular increase, ZR-75-1 (in words): inhibit the cellular increase of the two mammary lineages at the concentrations tested
[7]
  adverse effects in chronic treatment (in words): powerful effect of hypervitaminose, of mucocutaneous toxicity and of teratogenecity
[8]; [10]
  activity at 0.01 µM: 77.6%
  activity at 1 µM: 85.9%
  activity at 100 µM: 23.6%
[8]; MTT test
  effect on cellular increase, A549 (in words): inhibit the proliferation of the A549 lineage at 10^-6 M and 10^-8 M
[9]; Homo sapiens, T47D, T-47D, 10^-4 M, 72 h, control = 100%, read-out: level of proliferation
  activity at 100 µM: 9.94%
[9]; Homo sapiens, T47D, T-47D, 10^-6 M, 72 h, control = 100%, read-out: level of proliferation
  activity at 1 µM: 51.8%
[9]; Homo sapiens, T47D, T-47D, 10^-8 M, 72 h, control = 100%, read-out: level of proliferation
  activity at 0.01 µM: 70.3%
[9]; MTT test
  effect on cellular increase, T-47D (in words): inhibit the cellular increase of the two mammary lineages at the concentrations tested
